# From patent US9073855B2, “BCL-2 selective apoptosis-inducing agents for the treatment of cancer and immune diseases” (AbbVie Inc., priority 2008, dated 2015)
# What was measured:
# Canine platelets = assay: Platelet cell viability assay (platelet-rich plasma, Cell Titer Glo); format: cell-based; conditions: Canis lupus familiaris, 5 h, isolated canine platelets ex vivo, five hours at 37° C.
# Outline: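 Isolated canine platelets were incubated ex vivo with a range of compound concentrations. After 20 min equilibration at room temperature, viability was measured by Cell Titer Glo luminescence.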
# GST-Bcl-2 = GST-Bcl-2 (Homo sapiens, UniProt P10415); assay: TR-FRET binding assay, GST-Bcl-2 with F-Bak peptide probe; conditions: TR-FRET Binding Affinity, GST-Bcl-2, F-Bak peptide probe
# Outline: (§1)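 Compounds were serially diluted in DMSO from a 50 μM starting solution (2× the starting concentration; 10% DMSO). Plates were incubated for 3 h at room temperature, and TR-FRET was read with 340/35 nm excitation and emission at 520/525 nm (F-Bak) and 495/510 nm (Tb antibody). Ki values were calculated using Wang's competitive-binding equation.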
# GST-Bcl-XL = GST-Bcl-XL (Homo sapiens, UniProt Q07817); assay: TR-FRET binding assay, GST-Bcl-XL with F-Bak peptide probe; conditions: TR-FRET Binding Affinity, GST-Bcl-XL, F-Bak peptide probe
# Outline: as §1
# FL5.12/Bcl-2 cells = assay: FL5.12/Bcl-2 cell viability assay under IL-3 withdrawal (CellTitre Glo); format: cell-based, murine; conditions: Mus musculus, IL-3 withdrawn 48 hrs, then 24 hrs with compound
# Outline: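 Viability measured with CellTiter-Glo after 24 h compound treatment at various concentrations, following 48 h IL-3 withdrawal (no WEHI-3B medium). Cells: prolymphocytic mouse FL5.12 line stably transfected to overexpress Bcl-2, cultured at 37 °C, 5% CO2.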
# Chain of GST-Bcl-XL (Q07817 whole entry): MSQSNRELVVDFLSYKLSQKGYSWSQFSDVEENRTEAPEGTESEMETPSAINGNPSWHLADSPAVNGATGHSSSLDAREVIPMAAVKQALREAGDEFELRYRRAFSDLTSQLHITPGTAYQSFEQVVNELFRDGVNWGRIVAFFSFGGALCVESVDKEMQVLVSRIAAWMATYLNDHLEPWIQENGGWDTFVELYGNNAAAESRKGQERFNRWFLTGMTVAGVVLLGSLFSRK
# Chain of GST-Bcl-2 (P10415 whole entry): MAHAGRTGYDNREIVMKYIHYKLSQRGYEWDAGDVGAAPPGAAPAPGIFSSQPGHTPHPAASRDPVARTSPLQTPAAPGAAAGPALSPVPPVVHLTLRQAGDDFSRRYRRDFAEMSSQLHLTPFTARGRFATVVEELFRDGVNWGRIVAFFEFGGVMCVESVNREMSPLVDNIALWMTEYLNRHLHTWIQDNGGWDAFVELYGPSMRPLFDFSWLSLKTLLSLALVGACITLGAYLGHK
compound,measurement,setting,value
"CN(C)CCCOc1ccc(S(=O)(=O)NC(=O)c2ccc(N3CCN(CC4=C(c5ccc(Cl)cc5)CC(C)(C)CC4)CC3)cc2Oc2ccc3[nH]ccc3c2)cc1[N+](=O)[O-] [Example 100, 4-(4-{[2-(4-chlorophenyl)-4,4-dimethylcyclohex-1-en-1-yl]methyl}piperazin-1-yl)-N-({4-[3-(dimethylamino)propoxy]-3-nitrophenyl}sulfonyl)-2-(1H-indol-5-yloxy)benzamide]",EC50,Canine platelets,31200 nM
same,Ki,GST-Bcl-2,0.116 nM
same,Ki,GST-Bcl-XL,8.29 nM
same,EC50,FL5.12/Bcl-2 cells,15 nM
"CC1(C)CCC(CN2CCN(c3ccc(C(=O)NS(=O)(=O)c4ccc(NCCCN5CCCC5)c([N+](=O)[O-])c4)c(Oc4cccc5[nH]ccc45)c3)CC2)=C(c2ccc(Cl)cc2)C1 [Example 102, 4-(4-{[2-(4-chlorophenyl)-4,4-dimethylcyclohex-1-en-1-yl]methyl}piperazin-1-yl)-2-(1H-indol-4-yloxy)-N-({3-nitro-4-[(3-pyrrolidin-1-ylpropyl)amino]phenyl}sulfonyl)benzamide]",EC50,Canine platelets,20200 nM
same,Ki,GST-Bcl-2,0.035 nM
same,Ki,GST-Bcl-XL,2.24 nM
same,EC50,FL5.12/Bcl-2 cells,20 nM
"CN1CCC(Nc2ccc(S(=O)(=O)NC(=O)c3ccc(N4CCN(CC5=C(c6ccc(Cl)cc6)CC(C)(C)CC5)CC4)cc3Oc3cccc4[nH]ccc34)cc2[N+](=O)[O-])CC1 [Example 103, 4-(4-{[2-(4-chlorophenyl)-4,4-dimethylcyclohex-1-en-1-yl]methyl}piperazin-1-yl)-2-(1H-indol-4-yloxy)-N-({4-[(1-methylpiperidin-4-yl)amino]-3-nitrophenyl}sulfonyl)benzamide]",EC50,Canine platelets,31400 nM
same,Ki,GST-Bcl-2,0.056 nM
same,Ki,GST-Bcl-XL,117 nM
same,EC50,FL5.12/Bcl-2 cells,14 nM
"CN1CCC(CNc2ccc(S(=O)(=O)NC(=O)c3ccc(N4CCN(CC5=C(c6ccc(Cl)cc6)CC(C)(C)CC5)CC4)cc3Oc3ccc4[nH]ccc4c3)cc2[N+](=O)[O-])CC1 [Example 104, 4-(4-{[2-(4-chlorophenyl)-4,4-dimethylcyclohex-1-en-1-yl]methyl}piperazin-1-yl)-2-(1H-indol-5-yloxy)-N-[(4-{[(1-methylpiperidin-4-yl)methyl]amino}-3-nitrophenyl)sulfonyl]benzamide]",EC50,Canine platelets,> 50000 nM
same,Ki,GST-Bcl-2,0.077 nM
same,Ki,GST-Bcl-XL,49.1 nM
same,EC50,FL5.12/Bcl-2 cells,21 nM
"CN1CCC(CNc2ccc(S(=O)(=O)NC(=O)c3ccc(N4CCN(CC5=C(c6ccc(Cl)cc6)CC(C)(C)CC5)CC4)cc3Oc3cccc4[nH]ccc34)cc2[N+](=O)[O-])CC1 [Example 105, 4-(4-{[2-(4-chlorophenyl)-4,4-dimethylcyclohex-1-en-1-yl]methyl}piperazin-1-yl)-2-(1H-indol-4-yloxy)-N-[(4-{[(1-methylpiperidin-4-yl)methyl]amino}-3-nitrophenyl)sulfonyl]benzamide]",EC50,Canine platelets,30300 nM
same,Ki,GST-Bcl-2,0.08 nM
same,Ki,GST-Bcl-XL,5.02 nM
same,EC50,FL5.12/Bcl-2 cells,13 nM
"CN1CCC(CNc2ccc(S(=O)(=O)NC(=O)c3ccc(N4CCN(CC5=C(c6ccc(Cl)cc6)CC(C)(C)CC5)CC4)cc3Oc3ccc4[nH]ccc4c3)cc2[N+](=O)[O-])(N(C)C)CC1 [Example 109, 4-(4-{[2-(4-chlorophenyl)-4,4-dimethylcyclohex-1-en-1-yl]methyl}piperazin-1-yl)-N-{[4-({[4-(dimethylamino)-1-methylpiperidin-4-yl]methyl}amino)-3-nitrophenyl]sulfonyl}-2-(1H-indol-5-yloxy)benzamide]",EC50,Canine platelets,> 50000 nM
same,Ki,GST-Bcl-2,0.161 nM
same,Ki,GST-Bcl-XL,> 660 nM
same,EC50,FL5.12/Bcl-2 cells,36 nM
"CN(C)CCOc1ccc(-c2ccc(Cl)cc2)c(CN2CCN(c3ccc(C(=O)NS(=O)(=O)c4ccc(NCC5CCOCC5)c(S(=O)(=O)C(F)(F)F)c4)c(Oc4ccccc4)c3)CC2)c1 [Example 120, 4-[4-({4′-chloro-4-[2-(dimethylamino)ethoxy]-1,1′-biphenyl-2-yl}methyl)piperazin-1-yl]-2-phenoxy-N-({4-[(tetrahydro-2H-pyran-4-ylmethyl)amino]-3-[(trifluoromethyl)sulfonyl]phenyl}sulfonyl)benzamide]",EC50,Canine platelets,> 50000 nM
same,Ki,GST-Bcl-2,0.443 nM
same,Ki,GST-Bcl-XL,99.6 nM
same,EC50,FL5.12/Bcl-2 cells,319 nM
"CN(C)CCOc1ccc(-c2ccc(Cl)cc2)c(CN2CCN(c3ccc(C(=O)NS(=O)(=O)c4ccc(NCCCN5CCCC5)c([N+](=O)[O-])c4)c(Oc4ccccc4)c3)CC2)c1 [Example 121, 4-[4-({4′-chloro-4-[2-(dimethylamino)ethoxy]-1,1′-biphenyl-2-yl}methyl)piperazin-1-yl]-N-({3-nitro-4-[(3-pyrrolidin-1-ylpropyl)amino]phenyl}sulfonyl)-2-phenoxybenzamide]",EC50,Canine platelets,309 nM
same,Ki,GST-Bcl-2,0.001 nM
same,Ki,GST-Bcl-XL,0.388 nM
same,EC50,FL5.12/Bcl-2 cells,38 nM
"CN(C)CCOc1cccc(-c2ccc(Cl)cc2)c1CN1CCN(c2ccc(C(=O)NS(=O)(=O)c3ccc(NCC4CCOCC4)c([N+](=O)[O-])c3)c(Oc3ccccc3)c2)CC1 [Example 122, 4-[4-({4′-chloro-3-[2-(dimethylamino)ethoxy]-1,1′-biphenyl-2-yl}methyl)piperazin-1-yl]-N-({3-nitro-4-[(tetrahydro-2H-pyran-4-ylmethyl)amino]phenyl}sulfonyl)-2-phenoxybenzamide]",EC50,Canine platelets,> 50000 nM
same,Ki,GST-Bcl-2,0.058 nM
same,Ki,GST-Bcl-XL,12.1 nM
same,EC50,FL5.12/Bcl-2 cells,40 nM
"CN(C)CCOc1cccc(-c2ccc(Cl)cc2)c1CN1CCN(c2ccc(C(=O)NS(=O)(=O)c3ccc(NCCCN4CCCC4)c([N+](=O)[O-])c3)c(Oc3ccccc3)c2)CC1 [Example 123, 4-[4-({4′-chloro-3-[2-(dimethylamino)ethoxy]-1,1′-biphenyl-2-yl}methyl)piperazin-1-yl]-N-({3-nitro-4-[(3-pyrrolidin-1-ylpropyl)amino]phenyl}sulfonyl)-2-phenoxybenzamide]",EC50,Canine platelets,2810 nM
same,Ki,GST-Bcl-2,0.015 nM
same,Ki,GST-Bcl-XL,1.37 nM
same,EC50,FL5.12/Bcl-2 cells,87 nM
"CN(C)CCOc1ccc(-c2ccc(Cl)cc2)c(CN2CCN(c3ccc(C(=O)NS(=O)(=O)c4ccc(NCC5CCOCC5)c([N+](=O)[O-])c4)c(Oc4cccc5[nH]ccc45)c3)CC2)c1 [Example 125, 4-[4-({4′-chloro-4-[2-(dimethylamino)ethoxy]-1,1′-biphenyl-2-yl}methyl)piperazin-1-yl]-2-(1H-indol-4-yloxy)-N-({3-nitro-4-[(tetrahydro-2H-pyran-4-ylmethyl)amino]phenyl}sulfonyl)benzamide]",EC50,Canine platelets,44800 nM
same,Ki,GST-Bcl-2,0.003 nM
same,Ki,GST-Bcl-XL,11.6 nM
same,EC50,FL5.12/Bcl-2 cells,10 nM
"CN(C)CCOc1ccc(-c2ccc(Cl)cc2)c(CN2CCN(c3ccc(C(=O)NS(=O)(=O)c4ccc(NCC5CCOCC5)c([N+](=O)[O-])c4)c(Oc4ccc5[nH]ccc5c4)c3)CC2)c1 [Example 126, 4-[4-({4′-chloro-4-[2-(dimethylamino)ethoxy]-1,1′-biphenyl-2-yl}methyl)piperazin-1-yl]-2-(1H-indol-5-yloxy)-N-({3-nitro-4-[(tetrahydro-2H-pyran-4-ylmethyl)amino]phenyl}sulfonyl)benzamide]",EC50,Canine platelets,> 50000 nM
same,Ki,GST-Bcl-2,0.012 nM
same,Ki,GST-Bcl-XL,163 nM
same,EC50,FL5.12/Bcl-2 cells,31 nM
"CN(C)CCOc1cccc(-c2ccc(Cl)cc2)c1CN1CCN(c2ccc(C(=O)NS(=O)(=O)c3ccc(NCC4CCOCC4)c([N+](=O)[O-])c3)c(Oc3cccc4[nH]ccc34)c2)CC1 [Example 128, 4-[4-({4′-chloro-3-[2-(dimethylamino)ethoxy]-1,1′-biphenyl-2-yl}methyl)piperazin-1-yl]-2-(1H-indol-4-yloxy)-N-({3-nitro-4-[(tetrahydro-2H-pyran-4-ylmethyl)amino]phenyl}sulfonyl)benzamide]",EC50,Canine platelets,> 50000 nM
same,Ki,GST-Bcl-2,0.051 nM
same,Ki,GST-Bcl-XL,363 nM
same,EC50,FL5.12/Bcl-2 cells,25 nM
